Assay results: patent publication US12653865B2, “Dual-agonist compound for both GLP-1 and GIP receptors and application thereof” (Jiangsu Hengrui Pharmaceuticals Co., Ltd., priority 2020, dated 2026)
*1 amine or outer side, *2 acyl side, *3 side chain or, on linkers, in order; H or OH if unused. Where a SMILES comes first, the peptide text is derived from it. Side-chain parts run from the residue outwards. [ ]: non-standard residue; d: D form. The star is where a group is joined. C20 diacid = O=C(O)CCCCCCCCCCCCCCCCCCC(=O)*; γGlu = O=C(O)[C@H](CCC(=O)[*:2])N[*:1]; AEEA = NCCOCCOCC(=O)O; Aib = CC(C)(N)C(=O)O

What was measured:
diet-induced obese mice = assay: Body weight and fat mass in diet-induced obese mice; format: in vivo, C57BL/6 mice; details: for rate of change in body weight / viscera/brain ratio for fat mass, Epididymal fat / viscera/brain ratio for fat mass, Inguinal fat / viscera/brain ratio for fat mass, Mesenteric fat / viscera/brain ratio for fat mass, Perirenal fat / viscera/brain ratio for fat mass, Scapular fat / viscera/brain ratio for fat mass, Subcutaneous fat: DIO mice; for viscera/brain ratio for fat mass, Epididymal fat / viscera/brain ratio for fat mass, Inguinal fat / viscera/brain ratio for fat mass, Mesenteric fat / viscera/brain ratio for fat mass, Perirenal fat / viscera/brain ratio for fat mass, Scapular fat / viscera/brain ratio for fat mass, Subcutaneous fat: end of study
Experimental: (§1) High-fat food-induced obese male C57BL/6 mice (weighing 35-55 g, aged 10-12 weeks, purchased from Shanghai Jiesijie Laboratory Animal Co., Ltd.) were tested. […] According to the experimental design, the body weight of each mouse was measured and recorded on day 0, day 3, day 6 and so on to day 27, the average body weight of each group of mice was calculated, and weight change curves were plotted by taking the body weight on the first day as the standard. At the end, the fat and other visceral organs of each part of the mice were taken out and weighed, and the viscera/brain ratio for fat in each part of each mouse was calculated. The effect of the drug on the fat was determined by comparing the change in the organ/brain ratio for fat of different parts of each group of mice.

DIO mice = assay: Food intake ration of diet-induced obese mice; format: in vivo, C57BL/6 mice
Experimental: as §1
The food intake ration of mice in each group was measured daily during the test.

db/db mice = assay: Glucose metabolism level in db/db mice; format: in vivo, C57BL/KsJ-db/db mice
Experimental: Each administration group contained 10 db/db mice. According to the experimental design, tail vein blood was collected by needle pricking on days 0, 7, 14, 21 and 28 and determined for fasting blood glucose levels with a glucometer and glucose dipsticks, and the mice were fasted 6 h prior to the blood collection at each time point. Tail vein blood was collected by needle pricking on days 3, 10, 17, 24 and 27 and randomly determined for blood glucose levels with a glucometer. Finally, at the end of the experiment on day 28, all the animals in the administration groups were subjected to 2-5% isoflurane inhalation anesthesia, and 100 μL of EDTA-K2 anticoagulated whole blood was collected through the orbit of each mouse and used for the determination of glycated hemoglobin.

## CC[C@H](C)[C@H](NC(=O)[C@H](CCCCN)NC(=O)[C@H](CCC(=O)O)NC(=O)[C@H](CCCCNC(=O)COCCOCCNC(=O)COCCOCCNC(=O)CC[C@H](NC(=O)CCCCCCCCCCCCCCCCCCC(=O)O)C(=O)O)NC(=O)[C@H](Cc1ccc(O)cc1)NC(=O)[C@@H](NC(=O)[C@H](CO)NC(=O)[C@H](Cc1ccc(O)cc1)NC(=O)[C@H](CC(=O)O)NC(=O)[C@H](CO)NC(=O)[C@@H](NC(=O)[C@H](Cc1ccccc1)NC(=O)[C@@H](NC(=O)CNC(=O)[C@H](CCC(=O)O)NC(=O)C(C)(C)NC(=O)[C@@H](N)Cc1ccc(O)cc1)[C@@H](C)O)[C@@H](C)O)[C@@H](C)CC)C(=O)N[C@@H](C)C(=O)N[C@@H](C)C(=O)N[C@@H](CCC(N)=O)C(=O)N[C@@H](CCC(=O)O)C(=O)N[C@@H](Cc1ccccc1)C(=O)N[C@H](C(=O)N[C@@H](CC(N)=O)C(=O)N[C@@H](Cc1c[nH]c2ccccc12)C(=O)N[C@@H](CC(C)C)C(=O)N[C@@H](CC(C)C)C(=O)N[C@@H](C)C(=O)NCC(=O)NCC(=O)N1CCC[C@H]1C(=O)N[C@@H](CO)C(=O)N[C@@H](CO)C(=O)NCC(=O)N[C@@H](C)C(=O)N1CCC[C@H]1C(=O)N1CCC[C@H]1C(=O)N1CCC[C@H]1C(=O)N[C@@H](CO)C(N)=O)C(C)C [Compound 18#] (H-Y[Aib]EGTFTSDYSIYK([AEEA-AEEA-γGlu-C20 diacid])EKIAAQEFVNWLLAGGPSSGAPPPS-NH2)
diet-induced obese mice; 3 nmol/kg sc, day 1 after administration
  rate of change in body weight: −5 ± 0.6%
diet-induced obese mice; 3 nmol/kg sc, day 6 after administration
  rate of change in body weight: −10 ± 4.4 %
diet-induced obese mice; 3 nmol/kg sc, day 7 after administration
  rate of change in body weight: −13 ± 5.3 %
diet-induced obese mice; 3 nmol/kg sc
  viscera/brain ratio for fat mass, Epididymal fat: 254.6 ± 113.4 %
  viscera/brain ratio for fat mass, Inguinal fat: 281.5 ± 140.1 %
  viscera/brain ratio for fat mass, Mesenteric fat: 84.8 ± 41.3 %
  viscera/brain ratio for fat mass, Perirenal fat: 159.2 ± 87.6 %
  viscera/brain ratio for fat mass, Scapular fat: 48 ± 15.3%
  viscera/brain ratio for fat mass, Subcutaneous fat: 120 ± 62 %
diet-induced obese mice; 10 nmol/kg sc, day 6 after administration
  rate of change in body weight: −15 ± 5.3 %
diet-induced obese mice; 10 nmol/kg sc, day 24 after administration
  rate of change in body weight: −26 ± 7.1 %
diet-induced obese mice; 10 nmol/kg sc
  viscera/brain ratio for fat mass, Epididymal fat: 211.7 ± 80.7 %
  viscera/brain ratio for fat mass, Inguinal fat: 194.4 ± 86.2 %
  viscera/brain ratio for fat mass, Mesenteric fat: 53.3 ± 14.6 %
  viscera/brain ratio for fat mass, Perirenal fat: 109.4 ± 57.1 %
  viscera/brain ratio for fat mass, Scapular fat: 42.5 ± 17^ %
  viscera/brain ratio for fat mass, Subcutaneous fat: 122 ± 73.2 %
diet-induced obese mice; 100 nmol/kg sc, day 20 after administration
  rate of change in body weight: −39 ± 6.5 %
diet-induced obese mice; 100 nmol/kg sc, day 23 after administration
  rate of change in body weight: −38 ± 5.9 %
diet-induced obese mice; 100 nmol/kg sc
  viscera/brain ratio for fat mass, Epididymal fat: 102.9 ± 32.2 %
  viscera/brain ratio for fat mass, Inguinal fat: 92 ± 34.5 %
  viscera/brain ratio for fat mass, Mesenteric fat: 27.4 ± 11.1 %
  viscera/brain ratio for fat mass, Perirenal fat: 46.6 ± 18.2 %
  viscera/brain ratio for fat mass, Scapular fat: 32.3 ± 7%
  viscera/brain ratio for fat mass, Subcutaneous fat: 57.1 ± 21.2 %
diet-induced obese mice; high-fat food-induced obese mice, 10 nmol/kg, day 27, text
  body weight reduced by: more than 20.0%
DIO mice; 3 nmol/kg sc, day 3 after administration
  daily food intake ration: 2 ± 0.5 g
DIO mice; 3 nmol/kg, 28 days after the administration
  cumulative food intake ration: 58.2 g
DIO mice; 3 nmol/kg, within 5 days after the administration
  cumulative food intake ration: 7.2 g
DIO mice; 10 nmol/kg sc, day 9 after administration
  daily food intake ration: 2 ± 0.6 g
DIO mice; 10 nmol/kg sc, day 15 after administration
  daily food intake ration: 3 ± 0.9 g
DIO mice; 10 nmol/kg sc, day 20 after administration
  daily food intake ration: 2 ± 0.5 g
DIO mice; 10 nmol/kg, 28 days after the administration
  cumulative food intake ration: 46.8 g
DIO mice; 10 nmol/kg, within 5 days after the administration
  cumulative food intake ration: 3.9 g
DIO mice; 100 nmol/kg sc, day 15 after administration
  daily food intake ration: 2 ± 0.4 g
DIO mice; 100 nmol/kg sc, day 18 after administration
  daily food intake ration: 2 ± 0.4 g
DIO mice; 100 nmol/kg, 28 days after the administration
  cumulative food intake ration: 36.7 g
DIO mice; 100 nmol/kg, within 5 days after the administration
  cumulative food intake ration: 1.8 g
db/db mice; 10 nmol/kg sc, Day 0
  Concentration of fasting blood glucose: 14.77 ± 1.30 mmol/L
  Concentration of random blood glucose: 20.42 ± 1.56 mmol/L
db/db mice; 10 nmol/kg sc, Day 7
  Concentration of fasting blood glucose: 6.05 ± 0.42 mmol/L
db/db mice; 10 nmol/kg sc, Day 10
  Concentration of random blood glucose: 20.66 ± 1.48 mmol/L
db/db mice; 10 nmol/kg sc, Day 14
  Concentration of fasting blood glucose: 6.30 ± 0.46 mmol/L
db/db mice; 10 nmol/kg sc, Day 17
  Concentration of random blood glucose: 18.91 ± 1.33 mmol/L
db/db mice; 10 nmol/kg sc, Day 21
  Concentration of fasting blood glucose: 7.89 ± 0.81 mmol/L
db/db mice; 10 nmol/kg sc, Day 24
  Concentration of random blood glucose: 21.17 ± 2.07 mmol/L
db/db mice; 10 nmol/kg sc, Day 28
  Concentration of fasting blood glucose: 9.41 ± 0.97 mmol/L
db/db mice; 10 nmol/kg sc, day 28
  Glycated hemoglobin: 4.71 ± 0.23 %
db/db mice; 30 nmol/kg sc, Day 0
  Concentration of fasting blood glucose: 14.13 ± 1.32 mmol/L
  Concentration of random blood glucose: 16.73 ± 1.59 mmol/L
db/db mice; 30 nmol/kg sc, Day 7
  Concentration of fasting blood glucose: 6.21 ± 0.26 mmol/L
db/db mice; 30 nmol/kg sc, Day 10
  Concentration of random blood glucose: 15.88 ± 1.86 mmol/L
db/db mice; 30 nmol/kg sc, Day 14
  Concentration of fasting blood glucose: 6.40 ± 0.57 mmol/L
db/db mice; 30 nmol/kg sc, Day 17
  Concentration of random blood glucose: 17.30 ± 1.17 mmol/L
db/db mice; 30 nmol/kg sc, Day 21
  Concentration of fasting blood glucose: 7.03 ± 0.52 mmol/L
db/db mice; 30 nmol/kg sc, Day 24
  Concentration of random blood glucose: 17.43 ± 1.92 mmol/L
db/db mice; 30 nmol/kg sc, Day 28
  Concentration of fasting blood glucose: 9.68 ± 1.03 mmol/L
db/db mice; 30 nmol/kg sc, day 28
  Glycated hemoglobin: 4.53 ± 0.17 %
db/db mice; 100 nmol/kg sc, Day 0
  Concentration of fasting blood glucose: 14.67 ± 1.46 mmol/L
  Concentration of random blood glucose: 9.11 ± 1.25 mmol/L
db/db mice; 100 nmol/kg sc, Day 7
  Concentration of fasting blood glucose: 5.85 ± 0.33 mmol/L
db/db mice; 100 nmol/kg sc, Day 10
  Concentration of random blood glucose: 12.34 ± 1.12 mmol/L
db/db mice; 100 nmol/kg sc, Day 14
  Concentration of fasting blood glucose: 6.25 ± 0.32 mmol/L
db/db mice; 100 nmol/kg sc, Day 17
  Concentration of random blood glucose: 11.89 ± 1.15 mmol/L
db/db mice; 100 nmol/kg sc, Day 21
  Concentration of fasting blood glucose: 6.13 ± 0.19 mmol/L
db/db mice; 100 nmol/kg sc, Day 24
  Concentration of random blood glucose: 11.51 ± 0.95 mmol/L
db/db mice; 100 nmol/kg sc, Day 28
  Concentration of fasting blood glucose: 7.89 ± 0.41 mmol/L
db/db mice; 100 nmol/kg sc, day 28, listed as 18 #
  Glycated hemoglobin: 3.78%
db/db mice; 100 nmol/kg sc, day 28, listed as #18
  Glycated hemoglobin: 3.78 ± 0.13 %
